Laboratory results published in patent US20230118114A1, “BIOERODIBLE LIFE SUPPORT HYDROGELS FOR THE DELIVERY OF VIABLE MITOCHONDRIA” (University of Kentucky Research Foundation, priority 2021, published 2023).
Entries after “also recorded” stand apart in the source; their conditions may differ.

Legend:
spinal cord injury (SCI) = conditions: cited from earlier work
[1] = tested on: mitochondria isolated from spinal cord injury site; conditions: once daily ALC administered acutely after contusion SCI; cited from earlier work
[2] = tested on: mitochondria isolated from spinal cord injury site; experiment: Mitochondrial respiration (OCR) of spinal cord mitochondria after contusion SCI; assay type: in vivo, rats; conditions: 24 hours after SCI; MitoTxp 100 µg intraspinal within 3 hr; ALC 300 mg/kg i.p. at 3 hours plus booster 6 hours later
Protocol: Bars are Mean ± SD, n=5-6/group. *p<0.05 compared with sham; # p<0.05 versus vehicle.
Briefly, rats were contused at L1/L2 spinal level with 250 kDyn force using Infinite Horizon Impactor; Sham group received only T12 laminectomy. Designated injured rats were injected either intraspinally with healthy mitochondria (100 µg, MitoTxp) isolated from syngeneic rat soleus muscle within 3 hr and/or injected with ALC (300 mg/kg, i.p.) at 3 hours followed by a booster 6 hours later. Then, after 24 hours, mitochondria were isolated from spinal cord injury site and assessed for respiration (OCR).

| Compound | long-term functional recovery and tissue sparing (spinal cord injury (SCI); continuous NACA 150 and 300 mg/kg/day up to 7 days post-injury) | mitochondrial respiration [1] | long term hind limb locomotor function and tissue sparing (spinal cord injury (SCI); continued daily ALC for three weeks after contusion SCI) | hind limb function (spinal cord injury (SCI); injured rats, 3 weeks of daily ALC treatment, vs vehicle) | tissue sparing (spinal cord injury (SCI); injured rats, 3 weeks of daily ALC treatment) | States III & V.1 OCR [2] |
| --- | --- | --- | --- | --- | --- | --- |
| N-acetylcysteine amide [NACA] | significant tissue sparing and improved recovery of hindlimb function; also recorded: significantly increased long-term functional recovery and tissue sparing |  |  |  |  |  |
| CC(=O)O[C@H](CC(=O)[O-])C[N+](C)(C)C [ALC, acetyl-L-carnitine] |  | maintains mitochondrial respiration | significantly improves long term hind limb locomotor function and tissue sparing | able to step consistently with weight support on their hind limbs | increased gray and white matter tissue sparing | insignificant trends |
